The source of these data is ChEMBL document CHEMBL6120951, “Viral Protein Dimerization Quality Control: A Design Strategy for a Potential Viral Inhibitor” (J Med Chem, 2024).

For data set [1], the system named is Jurkat. The data set is described as follows: Cytotoxicity against human Jurkat cells assessed as reduction in cell growth incubated for 24 hrs by CellTiter-Glo luminescent cell viability assay. Type of data set: functional. A general note: In ATP-based viability assays light output follows the ATP content of the culture.
Data set [2] can be described thus: Inhibition of SARS-CoV-2 MPro using Dabcyl-KTSAVLQSGFRKME-Edans as substrate preincubated for 15 mins followed by substrate addition measured after 30 mins by FRET assay. On the set-up: species or system Severe acute respiratory syndrome coronavirus 2.
The nature of data set [3]: Cytotoxicity against African green monkey Vero cells assessed as reduction in cell viability after 72 hrs by MTT assay. The data set is classed as toxicity, cell-based. The conditions noted are these: chlorocebus sabaeus. In general terms: Tetrazolium assays rely on reduction of a dye to a coloured formazan, in cell work by metabolically active cells.
In data set [4] the test system is MT4. The data set is described as follows: Cytotoxicity against human MT4 cells assessed as reduction in cell viability incubated for 72 hrs by cell-titer glo assay. The data set is classed as functional.
The test system of data set [5] is Human immunodeficiency virus 1. The data set is described as follows: Antiviral activity against HIV-1 3B infected in human MT4 cells assessed as reduction in viral replication. The data set is classed as functional, organism-based. The note with it: Human immunodeficiency virus 1, 3B.
Data set [6] concerns SARS-CoV-2. The data set is described as follows: Antiviral activity against SARS-CoV-2 infected in African green monkey Vero cells assessed as reduction in viral replication. The data set is classed as functional, organism-based. The note with it: Severe acute respiratory syndrome coronavirus 2, Vero.

With `Cc1[nH]c2ccccc2c1CC(=O)N[C@@H](Cc1ccccc1)C(=O)N(C)c1ccccc1`, the CC50 (usually the concentration giving 50% cytotoxicity) in data set [1] was greater than 47 µM.

As for `O=C(O)c1cc(-c2ccc(-c3ccccc3)cc2)nc2ccccc12`, the half-inhibitory concentration (IC50) (commonly the concentration that inhibits the measured activity by half) in data set [2] turned out to be 0.48 µM. In addition, in data set [3], the half-maximal cytotoxic concentration (CC50) at 72 h is greater than 50 µM.

In the case of `CC(C)Cc1sc(-c2nccs2)nc1C(=O)NCc1ccc(F)cc1`, in data set [4], the half-maximal cytotoxic concentration (CC50) was 50.4 µM.

Turning to `N#Cc1ccc(Nc2nc(-c3cccnc3)nc3ccccc23)cc1`, the CC50 in data set [1] is greater than 10 µM. The concentration giving a half-maximal response (EC50) (commonly the concentration that produces a half-maximal response) in data set [5] turned out to be 4 µM.

For `CC(=O)Nc1ccc(-c2cc(C)c(=O)n(Cc3ccc(Cl)cc3)n2)cc1`, the CC50 in data set [4] is greater than 100 µM.

For `O=C(CNC(=O)c1ccc(F)cc1)Nc1ccc(Cl)nc1Cl`, the CC50 in data set [4] was 144 µM.

Consider `O=C(Nc1cc(F)c(F)c(F)c1)c1ccc(F)c(S(=O)(=O)N2CCC(O)CC2)c1`, for which the CC50 in data set [4] worked out at 14.5 µM.

As to `CC(C)OCCCNC(=O)c1csc(Nc2cc(F)c(Cl)c(F)c2)n1`, the EC50 in data set [6] stood at 0.11 µM. The CC50 at 72 h in data set [3] is greater than 100 µM.

Regarding `CC(C)(C#Cc1ccc(-c2ccc(Cl)c3c(NS(C)(=O)=O)nn(CC(F)(F)F)c23)c([C@H](Cc2cc(F)cc(F)c2)NC(=O)Cn2nc(C(F)(F)F)c3c2C(F)(F)[C@@H]2C[C@H]32)n1)S(C)(=O)=O`, in data set [5], the EC50 is 0.000105 µM.

Turning to `N#Cc1ccc(C(=O)Nc2sc3c(c2C(=O)Nc2ccccc2O)CCCCC3)cc1`, the concentration for a half-maximal effect (EC50) in data set [6] came out at 0.38 µM. In data set [3], the CC50 at 72 h was greater than 250 µM.

As for `O=C(Nc1cccc(Cl)c1)C1C2CCCCC21` (configuration not stated), in data set [4], the CC50 is greater than 100 µM.

Consider `CCN1C(=O)C(c2cc(O)cc(-c3cccnc3)c2)C(=O)N(c2ccccc2)c2cc(C(F)(F)F)ccc21` (configuration not stated), for which the EC50 in data set [5] turned out to be 0.48 µM.

Regarding `O=C1NC(c2ccc(O)cc2)C2C(c3ccccc3)=NNC12` (configuration not stated), in data set [1], the CC50 was greater than 43 µM. The EC50 in data set [5] was 1.8 µM.

Turning to `CC1=C(C(C2=C(C)c3ccccc3C2=O)c2ccc(C)cc2)C(=O)CC(c2ccccc2)C1` (configuration not stated), the EC50 in data set [6] was found to be 1.82 µM.

On to `CCc1cc(-c2ccc(C(F)(F)F)o2)n(-c2ccc3c(c2)nc(-c2ccccc2O)n3Cc2ccc(=O)[nH]c2)n1`, for which the EC50 in data set [5] worked out at 0.11 µM.

On to `O=C(NC1CCNCC1)c1n[nH]cc1NC(=O)c1c(Cl)cccc1Cl` [AT-7519], for which the EC50 in data set [6] amounted to 25 µM.

In the case of `CCOc1cc2ncc(C#N)c(Nc3ccc(F)c(Cl)c3)c2cc1NC(=O)/C=C/CN(C)C` [PELITINIB], the concentration giving a half-maximal response (EC50) in data set [6] came to 1.25 µM.
